The values that follow come from patent US10583119B2, “Compounds, compositions and methods for making the same” (Signum Biosciences, Inc., priority 2008, dated 2020).

Holding throughout (format): biochemical
Assay [1] concerns the target T1, protein phosphatase 2A specific methyltransferase (MTase) (Homo sapiens, UniProt Q9UIC8).
T1 construct: His; made in house
Kind of assay: PP2A methylation in 96-well plate format (methyltransferase activity). To be noted: purified PP2A, MTase and [3H]-SAM; read-out: MT (IC50). Here is the method:
Purified PP2A, MTase and [^3H]-SAM, were incubated in reaction buffer at 37° C. At the end of the reaction, mixture was added onto the membranes of 96-well filter plate (Multiscreen™, Millipore). The membranes were then pre-wetted with 70% ethanol (50 μL/well) and then subsequently washed with water (2×200 μL/well). The reaction in each well was terminated and the proteins (5 μL-20 μL) were precipitated by adding 25% ice-cold TCA. The plate was kept on ice for 30 minutes to ensure completion of protein precipitation. Excess of the free SAM was then removed by washing with 5% cold TCA ([…]) and 70% cold ethanol (2×100 μL/well). Membranes were air-dried, radioactivity in each well was counted by TopCount^NXT scintillation counter (Packard) with 25 μL/well of Microsinct™ 20 (PerkinElmer).

Assay [2] has as its target T2, protein phosphatase specific protein methylesterase (MEase) (Homo sapiens, UniProt Q9Y570).
T2 construct: made in house
T2 sequence (Q9Y570 1-386): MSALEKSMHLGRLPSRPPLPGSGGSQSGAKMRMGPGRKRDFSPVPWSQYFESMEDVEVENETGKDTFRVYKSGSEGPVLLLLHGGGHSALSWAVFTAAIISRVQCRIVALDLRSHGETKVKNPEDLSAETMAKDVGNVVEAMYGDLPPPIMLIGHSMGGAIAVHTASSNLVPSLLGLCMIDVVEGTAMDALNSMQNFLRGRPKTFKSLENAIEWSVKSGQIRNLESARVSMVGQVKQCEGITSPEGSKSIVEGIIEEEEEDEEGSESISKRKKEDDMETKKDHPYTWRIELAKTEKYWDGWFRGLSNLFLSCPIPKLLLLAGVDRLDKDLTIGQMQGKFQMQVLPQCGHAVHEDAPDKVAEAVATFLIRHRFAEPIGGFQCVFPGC
In words: PP2A demethylation with [3H]-SAM and purified proteins (methylesterase activity). The procedure: PP2A (methylated and unmethylated) were eluted with 1.6 mL of Buffer A containing 350 mM NaCl. Fractions (0.2 mL each) were collected and the radioactivity in each fraction was measured using the scintillation counter (LS 6000SE, Beckman). Fractions with highest radioactivity were containing purified methylated PP2A were pooled with a total volume of 0.6 mL-0.8 mL. Purified methylated PP2A (50 nM-100 nM) was incubated with MEase (5 nM-20 nM) in 20 μl-50 μl reaction at room temperature for 30 minutes. The reaction was terminated by adding TCA (2 μl-6 μl) to a final concentration of 10%. Released [^3H]-methanol in supernatants was counted with scintillation counter (LS 6000SE, Beckman).

In assay [3] the target is T3, PP2A (Homo sapiens, UniProt P67775).
T3 construct: made in house
T3 sequence (P67775 whole entry): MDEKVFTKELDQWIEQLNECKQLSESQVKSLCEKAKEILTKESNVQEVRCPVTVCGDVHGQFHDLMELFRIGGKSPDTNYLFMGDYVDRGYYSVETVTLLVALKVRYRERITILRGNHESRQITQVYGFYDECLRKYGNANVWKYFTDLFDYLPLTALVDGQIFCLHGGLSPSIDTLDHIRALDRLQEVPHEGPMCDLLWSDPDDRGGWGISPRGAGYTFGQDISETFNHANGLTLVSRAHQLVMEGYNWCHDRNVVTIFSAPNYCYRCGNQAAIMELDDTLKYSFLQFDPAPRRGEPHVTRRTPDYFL
T3 sequence (P30153 whole entry partner): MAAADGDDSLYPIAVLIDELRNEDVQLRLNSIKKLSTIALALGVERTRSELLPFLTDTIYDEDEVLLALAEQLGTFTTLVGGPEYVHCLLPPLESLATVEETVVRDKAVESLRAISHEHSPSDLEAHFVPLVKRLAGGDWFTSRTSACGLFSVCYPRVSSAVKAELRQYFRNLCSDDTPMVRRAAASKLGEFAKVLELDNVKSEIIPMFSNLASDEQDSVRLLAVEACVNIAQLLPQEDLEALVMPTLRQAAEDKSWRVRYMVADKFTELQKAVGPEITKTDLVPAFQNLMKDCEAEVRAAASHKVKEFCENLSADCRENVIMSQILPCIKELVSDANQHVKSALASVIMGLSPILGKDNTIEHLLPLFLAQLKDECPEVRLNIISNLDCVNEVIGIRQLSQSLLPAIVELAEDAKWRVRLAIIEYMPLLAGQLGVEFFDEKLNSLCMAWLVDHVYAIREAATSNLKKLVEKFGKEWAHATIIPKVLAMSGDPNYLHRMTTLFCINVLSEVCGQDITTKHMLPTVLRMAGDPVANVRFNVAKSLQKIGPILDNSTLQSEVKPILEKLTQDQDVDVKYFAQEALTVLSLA
Kind of assay: Phosphatase activity of PP2A using pNPP as substrate. To be noted: un-methylated PP2A, non-protein substrate pNPP, absence of ME and MT. The procedure:
PP2A (10-200 nM) and pNPP (5-10 mM, Sigma) were mixed into 96-well plate (Fisher Scientific Inc.) in 50 μL of the buffer required. Reactions were performed at room temperature, and fully stopped by adding equal volume of 0.1 M EDTA. Production of p-nitrophenol […] was quantified by absorbance of reaction mixtures at 405 nm using the VMax® microplate reader (Molecular Devices).

For assay [4], the target named is T3, PP2A. In words: Phosphatase activity of PP2A using phosphorylase a as substrate. The note with it: un-methylated PP2A, protein substrate phosphorylase a, absence of ME and MT. Here is the method:
After the reaction, proteins were precipitated by 50% (NH4)2SO4 (final concentration) twice, and collected by centrifugation. The pellet was re-dissolved and dialyzed in a buffer containing 50 mM Tris-HCl (pH6.9) and ImM DTT for 2×2 L at 4° C. overnight. Phosphorylase a (phospho-phosphorylase b) crystallized during the dialysis. The dialysate was centrifuged 14,000 r.p.m at 4° C. for 30 minutes, the supernatant was removed and purified ^32P-labelled phosphorylase a was re-dissolved in +50% glycerol, and stored at −20° C.
To measure PP2A's phosphatase activity, PP2A (5-20 nM) was incubated with phosphorylase a (5-10 μM) at 37° C. 10% TCA (final concentration) and was added to the reaction to precipitate proteins. Supernatant that contains free ^32P-phosphate group was added into scintillation counting solution (Ecoscint, National Diagnostics), and counted by scintillation counter (LS 6000SE, Beckman).

The mark [5] stands for this setting: purified methylated PP2A and MEase, read-out: ME (IC50).

pIC50: −log10 of the molar value. Like-named read-outs stand apart in the source and are kept apart here. Bounds are passed on as bounds.

T1 sequence (Q9UIC8 whole entry): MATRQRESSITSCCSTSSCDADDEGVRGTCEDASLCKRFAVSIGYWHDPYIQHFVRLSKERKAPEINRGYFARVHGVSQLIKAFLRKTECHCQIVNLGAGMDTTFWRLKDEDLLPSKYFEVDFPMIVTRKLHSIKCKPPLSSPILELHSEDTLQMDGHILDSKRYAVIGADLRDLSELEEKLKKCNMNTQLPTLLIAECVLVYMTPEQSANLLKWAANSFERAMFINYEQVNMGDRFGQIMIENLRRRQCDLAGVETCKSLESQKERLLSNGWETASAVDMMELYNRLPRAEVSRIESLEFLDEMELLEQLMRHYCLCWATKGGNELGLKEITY

As for `CCCCCCC(O)CCCCCCCCCCC(=O)NCCc1c[nH]c2ccc(O)cc12` (stereo not shown) [Compound I-29, 12-hydroxy-N-[2-(5-hydroxy-1H-indol-3-yl)ethyl] octadecanamide], the pIC50 in assay [1] was 4.00 to 5.00; in assay [2] (setting [5]), 4.00 to 5.00; on PP2A [3] it was above 5.00; against PP2A [4] it was below 4.00.
As to `CCCCCCCCCCCCCCCCNC(=O)NCCc1c[nH]c2ccc(O)cc12` [Compound I-30, 3-hexadecyl-1-[2-(5-hydroxy-1H-indol-3-yl)ethyl]urea], the pIC50 in assay [1] was 4.00 to 5.00; in assay [2] (setting [5]), above 5.00; against PP2A [3], 4.00 to 5.00; on PP2A [4] it was 4.00 to 5.00.
As to `CCCCCCCCCCCCCCCCCCNC(=O)NCCc1c[nH]c2ccc(O)cc12` [Compound I-31, 1-[2-(5-hydroxy-1H-indol-3-yl)ethyl]-3-octadecylurea], the pIC50 was 4.00 to 5.00 in assay [1], above 5.00 in assay [2] (setting [5]), 4.00 to 5.00 on PP2A [3] and 4.00 to 5.00 at PP2A [4].
For the compound `CCCCCCCCCCCCCCCCCCCC(=O)NCCc1c[nH]c2ccc(OC(=O)CCC(=O)O)cc12` [Compound I-32, 4-{[3-(2-icosanamidoethyl)-1H-indol-5-yl]oxy}-4-oxobutanoic acid], the pIC50 was above 5.00 in assay [1], above 5.00 in assay [2] (setting [5]), 4.00 to 5.00 on PP2A [3] and 4.00 to 5.00 on PP2A [4].
Consider `CCCCCCCCCCCCCCCCCCCC(=O)NCCc1c[nH]c2ccc(OC(C)=O)cc12` [Compound I-33, 3-(2-icosanamidoethyl)-1H-indol-5-yl acetate], for which the pIC50 in assay [1] is above 5.00; in assay [2] (setting [5]), above 5.00; against PP2A [3], 4.00 to 5.00.
As for `CCCCCCCCCCCCCCCCCCCC(=O)NCCc1c[nH]c2ccc(F)cc12` [Compound I-35, N-[2-(5-fluoro-1H-indol-3-yl)ethyl]icosanamide], the pIC50 in assay [1] was above 5.00; in assay [2] (setting [5]) it was above 5.00; against PP2A [3], 4.00 to 5.00; on PP2A [4], below 4.00.
Turning to `CCCCCCCCCCCCCCCCCCCC(=O)NCCc1c[nH]c2ccc(C)cc12` [Compound I-36, N-[2-(5-methyl-1H-indol-3-yl)ethyl]icosanamide], the pIC50 is above 5.00 in assay [1], 4.00 to 5.00 in assay [2] (setting [5]), 4.00 to 5.00 on PP2A [3] and below 4.00 at PP2A [4].
As to `CCCCCCCCCCCCCCCCCCCC(=O)N(C)CCc1c[nH]c2ccccc12` [Compound I-38, N-[2-(1H-indol-3-yl)ethyl]-N-methylicosanamide], the pIC50 (in assay [1]; in assay [2]; at PP2A [3]) was below 4.00 throughout.
As to `CCCCCCCCCCCCCCCCCCNC(=O)Cc1c[nH]c2ccc(O)cc12` [Compound I-39, 2-(5-hydroxy-1H-indol-3-yl)-N-octadecylacetamide], the pIC50 in assay [1] is 4.00 to 5.00; in assay [2] (setting [5]), above 5.00; against PP2A [3], 4.00 to 5.00; against PP2A [4] it was 4.00 to 5.00.
Consider `CCCCCCCCCCCCCCCCCCCC(=O)NCCc1c[nH]c2ccccc12` [Compound I-64, N-(2-(1H-indol-3-yl)ethyl) icosanamide], for which the pIC50 in assay [1] is above 5.00; in assay [2] (setting [5]), above 5.00; on PP2A [3] it was below 4.00; against PP2A [4], 4.00 to 5.00.
As for `CCCCCCCCCCCCCCCCCC(=O)NCCc1c[nH]c2ccccc12` [Compound I-65, N-(2-(1H-indol-3-yl)ethyl)stearamide], the pIC50 in assay [1] is above 5.00; in assay [2] (setting [5]) it was above 5.00; against PP2A [3], below 4.00; against PP2A [4], 4.00 to 5.00.
With `CCCCCCCCCCCCCCCCCC(=O)NCCc1c[nH]c2ccc(O)cc12` [Compound I-66, N-(2-(5-hydroxy-1H-indol-3-yl)ethyl)stearamide], the pIC50 in assay [1] was above 5.00; in assay [2] (setting [5]), above 5.00; at PP2A [3], 4.00 to 5.00; on PP2A [4], below 4.00.
As for `CCCCCCCCCCCCCCCCCCC(=O)NCCc1c[nH]c2ccc(O)cc12` [Compound I-67, N-(2-(5-hydroxy-1H-indol-3-yl)ethyl)nonadecanamide], the pIC50 was below 4.00 in assay [2] (setting [5]), 4.00 to 5.00 at PP2A [3] and below 4.00 at PP2A [4].
For `CCCCCCCCCCCCCCCC(=O)NCCc1c[nH]c2ccc(O)cc12` [Compound I-76, N-(2-(5-hydroxy-1H-indol-3-yl)emyl)palmitamide], the pIC50 (in assay [1]; in assay [2] (setting [5]); on PP2A [3]) was below 4.00 throughout.
Regarding `CCCCCCCCCC(=O)NCCc1c[nH]c2ccc(O)cc12` [Compound I-77, N-(2-(5-hydroxy-1H-indol-3-yl)ethyl)decanamide], the pIC50 (in assay [1]; in assay [2] (setting [5]); at PP2A [3]) was below 4.00 throughout.
For the compound `CCCCCCCCCCCCCCCCNC(=O)NC(Cc1c[nH]c2ccc(O)cc12)C(=O)O` (stereo not shown) [Compound I-78, 2-(3-hexadecylureido)-3-(5-hydroxy-1H-indol-3-yl)propanoic acid], the pIC50 in assay [1] is above 5.00; in assay [2] (setting [5]), above 5.00; against PP2A [3], below 4.00.
Take `CCCCCCCCCCCCCCCCCCNC(=O)NC(Cc1c[nH]c2ccc(O)cc12)C(=O)O` (stereo not shown) [Compound I-79, 3-(5-hydroxy-1H-indol-3-yl)-2-(3-octadecylureido)propanoic acid]: the pIC50 in assay [1] was above 5.00; in assay [2] (setting [5]), 4.00 to 5.00; against PP2A [3] it was below 4.00.
Regarding `CCCCCCCCCCCCCCCCNC(=O)C(Cc1c[nH]c2ccccc12)NC(=O)OC(C)(C)C` (stereo not shown) [Compound I-80, tert-butyl 1-(hexadecylamino)-3-(1H-indol-3-yl)-1-oxpopran-2-ylcarbamate], the pIC50 in assay [1] was above 5.00; in assay [2] (setting [5]), above 5.00; on PP2A [3], 4.00 to 5.00.

As usually defined, the pIC50 is the IC50 on a negative log10 scale, so that one unit is a factor of ten.
